The values that follow come from publication PMC7591920, “A protein tertiary structure mimetic modulator of the Hippo signalling pathway” (Nature Communications, 2020).

Bridge positions count the residues as written; N and C are the ends. Square brackets hold non-standard residues; d marks the D form. Peptide text beside a SMILES is read from it. Orn = NCCC[C@H](N)C(=O)O; Dab = NCC[C@H](N)C(=O)O

The target of one series is T1, mTEAD4 (Mus musculus, UniProt Q62296).
T1 construct: Mouse TEAD4(210–427) cDNA fused with a 6x His-tag and a 3C protease cleavage site; 6x His-tag; 3C protease cleavage site; made in house; host or cells: E. coli BL21 DE3 RIL(K+)
Nature of the series: SPR binding to immobilised mTEAD4. As to conditions: mTEAD4 amine-coupled on CM5, multi-cycle, steady-state fit 1:1 model, 10 mM HEPES 150 mM NaCl 0.05% Tween-20 pH 7.4, 0.3% DMSO, 20 °C, Fig. 1 values n = 1 replicate. How it is done: (§1) Sensor chips Series S CM5 (Research grade) were obtained from GE Healthcare. Prior to use, the sensor chips were equilibrated at room temperature for 15 min to prevent water condensation on the detector side of the sensor chip surface. A running buffer was prepared composed of 10 mM HEPES, 150 mM NaCl, and 0.05% (w/v) Tween-20, pH 7.4, and the system was equilibrated at 20 °C using a flow rate of 30 µL min^−1 after docking of the sensor chip. Ligand binding experiments have been performed applying the concept of multi-cycle kinetics. A contact time of 45 s was selected, followed by a 6-min dissociation phase to allow for complete dissociation of the analyte prior to the next cycle. […] Typically, seven concentrations of the analytes have been examined applying a threefold dilution pattern with 30 µM as top concentration. For the analysis, five running buffer blanks were injected to equilibrate the instrument. […] The carboxyl-dextran surface was activated for 7 min with 0.05 M NHS and 0.2 M EDC, followed by an injection of the proteins in 10 mM MES pH 6.4 at a concentration of 30–50 µg mL^−1. […] This was followed by a deactivation of the residual esters by injecting a solution of 0.5 M ethanolamine pH 8.0 for 7 min before engaging in ligand binding experiments. Reference surfaces were prepared accordingly, omitting the injection of protein over the activated reference surface.
(In general: Surface plasmon resonance follows binding to a sensor surface in real time, without labels.)

For the next series, the target named is T2, GST-hTEAD1 (Homo sapiens, UniProt P28347).
T2 construct: CDNA of hTEAD1(209–426) fused with an N-terminal GST tag; made in house; host or cells: Escherichia coli BL21 DE3 RIL(K+)
Nature of the series: SPR binding to immobilised GST-hTEAD1. As to conditions: GST-hTEAD1 amine-coupled on CM5, multi-cycle, steady-state fit 1:1 model, 10 mM HEPES 150 mM NaCl 0.05% Tween-20 pH 7.4, 0.3% DMSO, 20 °C, Fig. 1 values n = 1 replicate. The method, then: as §1

Series [1] relates to RKO cells. Nature of the series: Total drug content in RKO cells by UPLC-MS. Particulars: 25 µM compound; for Total drug content, Measured Concentration: RIPA total lysis, diluted lysate.
Procedure: Peptides were incubated in RKO cells (ATCC, #CRL-2577) as follows: Experiment 1: RKO cells were incubated in 25 µM compound for 90 min and 24 h. Experiment 2: RKO cells were incubated in 25 µM for 30 min or 72 h. Following peptide incubation, the cells were washed twice with PBS, trypsinized and pelleted. The pellets were lysed in RIPA buffer (Perkin Elmer) for total lysis, or CelLytic NuCLEAR Extraction Kit (SIGMA) for subcellular fractionation. Total protein quantification BCA (Pierce) was performed prior to MS analysis to normalize sample data. Total and fractionated cell lysates were analysed by quantitative UPLC-MS utilizing a Waters Xevo TQ-XS (WBA0259) and an Acquity UPLC system from Waters consisting of Sample Manager (M16UFL953M), Acquity PDA (F17UPD457A), Column Oven (E17CMP703G) and Binary Solvent Manager (E17BUR621G). […] Chromatograms of the samples were treated similarly, and by linear regression (1/x) an in-cell concentration was established in the re-suspended cell lysate using the Waters MassLynx TargetLynx^TM product.
Series [2] has as its system RKO cells. Nature of the series: Sub-cellular (cytoplasmic, nuclear) peptide concentration in RKO cells by UPLC-MS. Particulars: for Sub-cellular drug content, Cytoplasm / Sub-cellular drug content, Cytoplasm, Measured concentration / Sub-cellular drug content, Nuclear / Sub-cellular drug content, Nuclear, Measured concentration: fractionation, n = 2; for pMol/mg: Nuclear.

Setting [3] is: 25 µM compound, 90 minutes, UPLC-MS.
[4] abbreviates: 25 µM compound, 24 hours, UPLC-MS.

T2 sequence (P28347 209-426): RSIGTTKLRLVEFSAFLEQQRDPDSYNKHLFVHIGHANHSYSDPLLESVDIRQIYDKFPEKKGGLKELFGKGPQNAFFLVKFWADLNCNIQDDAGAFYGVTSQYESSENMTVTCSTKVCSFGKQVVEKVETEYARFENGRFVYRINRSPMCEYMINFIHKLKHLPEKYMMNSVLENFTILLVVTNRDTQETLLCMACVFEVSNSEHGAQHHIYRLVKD
T1 sequence (Q62296 210-427): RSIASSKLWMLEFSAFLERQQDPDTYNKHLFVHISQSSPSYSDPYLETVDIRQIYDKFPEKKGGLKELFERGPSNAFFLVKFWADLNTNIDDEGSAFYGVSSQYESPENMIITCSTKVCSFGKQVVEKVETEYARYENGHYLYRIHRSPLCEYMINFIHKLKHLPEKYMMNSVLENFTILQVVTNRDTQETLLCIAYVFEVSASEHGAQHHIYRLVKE

Broadly, the Kd is a measure of binding affinity in units of concentration. As to `CC[C@H](C)[C@@H]1NC(=O)[C@H](CCC(N)=O)NC(=O)[C@H](CC(C)C)NC(=O)[C@H](Cc2c[nH]c3ccccc23)NC(=O)[C@H]([C@@H](C)O)NC(=O)[C@H](CC(=O)O)NC(=O)CNC(=O)[C@H](CC(C)C)NC(=O)[C@H](C)NC(=O)[C@H](CCCCN)NC(=O)[C@H](C)NC(=O)[C@H](Cc2ccccc2)NC(=O)[C@H](Cc2c[nH]cn2)NC(=O)[C@H](CC(=O)O)NC(=O)[C@@H](NC(=O)[C@@H](NC(=O)[C@H](CO)NC(C)=O)C(C)C)CC(=O)NCC[C@@H](C(=O)N[C@@H](C)C(=O)N[C@@H](C)C(N)=O)NC1=O` [4A] (Ac-SVDDHFAKALGDTWLQI[Dab]AA-NH2; lactam 3-18), at mTEAD4, the Kd was 11000 nM.
`CC[C@H](C)[C@@H]1NC(=O)[C@H](CCC(N)=O)NC(=O)[C@H](CC(C)C)NC(=O)[C@H](Cc2c[nH]c3ccccc23)NC(=O)[C@H]([C@@H](C)O)NC(=O)[C@H](CC(=O)O)NC(=O)CNC(=O)[C@H](CC(C)C)NC(=O)[C@H](C)NC(=O)[C@H](CCCCN)NC(=O)[C@H](C)NC(=O)[C@H](Cc2ccccc2)NC(=O)[C@H](Cc2c[nH]cn2)NC(=O)[C@H](CC(=O)O)NC(=O)[C@@H](NC(=O)[C@@H](NC(=O)[C@H](CO)NC(C)=O)C(C)C)CC(=O)NCCC[C@@H](C(=O)N[C@@H](C)C(=O)N[C@@H](C)C(N)=O)NC1=O` [4B] (Ac-SVDDHFAKALGDTWLQI[Orn]AA-NH2; lactam 3-18) displayed a Kd on mTEAD4 of 11000 nM.
On the same count and under the same terms, then `CC[C@H](C)[C@@H]1NC(=O)[C@H](CCC(N)=O)NC(=O)[C@H](C)NC(=O)[C@H](Cc2c[nH]c3ccccc23)NC(=O)[C@H]([C@@H](C)O)NC(=O)[C@H](CC(=O)O)NC(=O)CNC(=O)[C@H](CC(C)C)NC(=O)[C@H](C)NC(=O)[C@H](CCCCN)NC(=O)[C@H](C)NC(=O)[C@H](Cc2ccccc2)NC(=O)[C@H](Cc2c[nH]cn2)NC(=O)[C@H](CC(=O)O)NC(=O)[C@@H](NC(=O)[C@@H](NC(=O)[C@H](CO)NC(C)=O)C(C)C)CCC(=O)NCCCC[C@@H](C(=O)N[C@@H](C)C(=O)N[C@@H](C)C(N)=O)NC1=O` [compound 24] (Ac-SVEDHFAKALGDTWAQIKAA-NH2; lactam 3-18), with 2000 ± 140 nM.
With `CC[C@H](C)[C@@H]1NC(=O)[C@H](CCC(N)=O)NC(=O)[C@H](CC(C)C)NC(=O)[C@H](Cc2c[nH]c3ccccc23)NC(=O)[C@H]([C@@H](C)O)NC(=O)[C@H](CC(=O)O)NC(=O)CNC(=O)[C@H](CC(C)C)NC(=O)[C@H](C)NC(=O)[C@H](CCCCN)NC(=O)[C@H](C)NC(=O)[C@H](Cc2ccccc2)NC(=O)[C@H](Cc2c[nH]cn2)NC(=O)[C@H](CC(=O)O)NC(=O)[C@@H](NC(=O)[C@@H](NC(=O)[C@H](CO)NC(C)=O)C(C)C)CCC(=O)NCCC[C@@H](C(=O)N[C@@H](C)C(=O)N[C@@H](C)C(N)=O)NC1=O` [4D] (Ac-SVEDHFAKALGDTWLQI[Orn]AA-NH2; lactam 3-18), the affinity on GST-hTEAD1, expressed as Kd, was 1500 nM.
As to `CC[C@H](C)[C@@H]1NC(=O)[C@H](CCC(N)=O)NC(=O)[C@H](CC(C)C)NC(=O)[C@H](Cc2c[nH]c3ccccc23)NC(=O)[C@H]([C@@H](C)O)NC(=O)[C@H](CC(=O)O)NC(=O)CNC(=O)[C@H](CC(C)C)NC(=O)[C@H](C)NC(=O)[C@H](CCCCN)NC(=O)[C@H](C)NC(=O)[C@H](Cc2ccccc2)NC(=O)[C@H](Cc2c[nH]cn2)NC(=O)[C@H](CC(=O)O)NC(=O)[C@@H](NC(=O)[C@H](C)NC(=O)[C@H](CO)NC(C)=O)CCC(=O)NCCCC[C@@H](C(=O)N[C@@H](C)C(=O)N[C@@H](C)C(N)=O)NC1=O` [compound 15] (Ac-SAEDHFAKALGDTWLQIKAA-NH2; lactam 3-18), the Kd at mTEAD4 was 1500 ± 370 nM.
For `CC[C@H](C)[C@@H]1NC(=O)[C@H](CCC(N)=O)NC(=O)[C@H](CC(C)C)NC(=O)[C@H](Cc2c[nH]c3ccccc23)NC(=O)[C@H]([C@@H](C)O)NC(=O)[C@H](CC(=O)O)NC(=O)CNC(=O)[C@H](CC(C)C)NC(=O)[C@H](C)NC(=O)[C@H](C)NC(=O)[C@H](C)NC(=O)[C@H](Cc2ccccc2)NC(=O)[C@H](Cc2c[nH]cn2)NC(=O)[C@H](CC(=O)O)NC(=O)[C@@H](NC(=O)[C@@H](NC(=O)[C@H](CO)NC(C)=O)C(C)C)CCC(=O)NCCCC[C@@H](C(=O)N[C@@H](C)C(=O)N[C@@H](C)C(N)=O)NC1=O` [compound 19] (Ac-SVEDHFAAALGDTWLQIKAA-NH2; lactam 3-18), the Kd on GST-hTEAD1 was determined as 1700 ± 10 nM.
Take `CC(=O)NCC(=O)N[C@@H](CCCNC(=N)N)C(=O)N[C@@H](CCCCN)C(=O)N[C@@H](CCCCN)C(=O)N[C@@H](CCCNC(=N)N)C(=O)N[C@@H](CCCNC(=N)N)C(=O)N[C@@H](CCC(N)=O)C(=O)N[C@@H](CCCNC(=N)N)C(=O)N[C@@H](CCCNC(=N)N)C(=O)N[C@@H](CCCNC(=N)N)C(=O)N1CCC[C@H]1C(=O)N[C@@H](CCC(N)=O)C(N)=O` [Tat, reference compound]: the “Total drug content, Measured Concentration” value in the series on RKO cells [1] (90 minutes, UPLC-MS, n = 2) amounted to 478.752 ± 163.021 nM; in the series with RKO cells [1] (24 hours, UPLC-MS, n = 2) it was 1797.357 ± 596.21 nM. Further, in the series with RKO cells [1] (24 hours, total lysis, UPLC-MS, n = 2), the “Total drug content” value is 2.696 ± 0.8943 nmol. Also, the “Measured Conc” value in the series with RKO cells [1] (total drug content, 90 minutes, UPLC-MS, dilution factor 10, replicate 1) is listed as 641.773 nM; in the series with RKO cells [1] (total drug content, 90 minutes, UPLC-MS, dilution factor 10, replicate 2), 315.731 nM; with RKO cells [1] (total drug content, 24 hours, UPLC-MS, dilution factor 10, replicate 1), 2393.57 nM; with RKO cells [1] (total drug content, 24 hours, UPLC-MS, dilution factor 10, replicate 2) it was 1201.15 nM. The “pMol/mg of protein, Mean” value with RKO cells [1] (total drug content, 90 minutes, mean of 2 replicates) is recorded as 882.5 pMol/mg of protein. Also, the “pMol/mg, Mean” value in the series with RKO cells [1] (total drug content, 24 hours, mean of 2 replicates) was 1647 pMol/mg; with RKO cells [2] (Cytoplasm, 25 µM compound, 90 minutes (1.5 hrs), mean of 2 replicates), 209 pMol/mg. The entries for the “Sub-cellular drug content, Cytoplasm” value in the series with RKO cells [2] (setting [3]) and in the series on RKO cells [2] (setting [4]) were 0.137 nmol and 0.1476 nmol, respectively. Moreover, the “Sub-cellular drug content, Cytoplasm, Measured concentration” value is 91.363 ± 8.748 nM in the series with RKO cells [2] (setting [3]) and 98.42 ± 12.91 nM in the series on RKO cells [2] (setting [4]). The “Sub-cellular drug content, Nuclear” value came to 0.6254 nmol with RKO cells [2] (setting [3]) and 0.9853 nmol in the series with RKO cells [2] (setting [4]). The “Sub-cellular drug content, Nuclear, Measured concentration” value is on record as 416.901 ± 142.802 nM with RKO cells [2] (setting [3]) and 656.841 ± 162.534 nM in the series with RKO cells [2] (setting [4]). Moreover, the pMol/mg stood at 2567 pMol/mg with RKO cells [2] (25 µM compound, 90 minutes (1.5 hrs), replicate 1) and 4988 pMol/mg with RKO cells [2] (25 µM compound, 90 minutes (1.5 hrs), replicate 2). Further, in the series on RKO cells [2] (cytoplasmic fraction, UPLC-MS, mean of n = 2), the “Cytoplasmic concentration of peptide” value is on record as 231.15 pMols/mg of protein. The “Nuclear concentration of peptide” value with RKO cells [2] (nuclear fraction, UPLC-MS, mean of n = 2) is reported as 3777.5 pMols/mg of protein.
Take `CC[C@H](C)[C@@H]1NC(=O)[C@H](CCC(N)=O)NC(=O)[C@H](CC(C)C)NC(=O)[C@H](Cc2c[nH]c3ccccc23)NC(=O)[C@H]([C@@H](C)O)NC(=O)[C@H](CC(=O)O)NC(=O)CNC(=O)[C@H](CC(C)C)NC(=O)[C@H](C)NC(=O)[C@H](CCCCN)NC(=O)[C@H](C)NC(=O)[C@H](Cc2ccccc2)NC(=O)[C@H](Cc2c[nH]cn2)NC(=O)[C@H](CC(=O)O)NC(=O)[C@@H](NC(=O)[C@@H](NC(=O)[C@H](C)NC(C)=O)C(C)C)CCC(=O)NCCCC[C@@H](C(=O)N[C@@H](C)C(=O)N[C@@H](C)C(N)=O)NC1=O` [compound 14] (Ac-AVEDHFAKALGDTWLQIKAA-NH2; lactam 3-18): binding on GST-hTEAD1 was characterised by a dissociation constant (Kd) of 1500 ± 20 nM.
As to `CC[C@H](C)[C@@H]1NC(=O)[C@H](CCC(N)=O)NC(=O)[C@H](CC(C)C)NC(=O)[C@H](Cc2c[nH]c3ccccc23)NC(=O)[C@H]([C@@H](C)O)NC(=O)[C@H](CC(=O)O)NC(=O)CNC(=O)[C@H](CC(C)C)NC(=O)[C@H](C)NC(=O)[C@H](CCCCN)NC(=O)[C@H](C)NC(=O)[C@H](Cc2ccccc2)NC(=O)[C@H](Cc2c[nH]cn2)NC(=O)[C@H](CC(=O)O)NC(=O)[C@@H](NC(=O)[C@@H](NC(=O)[C@H](CO)NC(C)=O)C(C)C)CC(=O)NCCCC[C@@H](C(=O)N[C@@H](C)C(=O)N[C@@H](C)C(N)=O)NC1=O` [4C] (Ac-SVDDHFAKALGDTWLQIKAA-NH2; lactam 3-18), at mTEAD4, the Kd came to 3200 nM.
